Source: patent publication US5807983A, “GNRH antagonist betides” (The Salk Institute for Biological Studies, priority 1996, dated 1998)
Non-standard residues stand in square brackets, D forms with d. Residues, ends and D or L forms follow the SMILES beside them. dPhe(4-NH2) = Nc1ccc(C[C@@H](N)C(=O)O)cc1; dPhe(4-Cl) = N[C@H](Cc1ccc(Cl)cc1)C(=O)O; Phe(4-NH2) = Nc1ccc(C[C@H](N)C(=O)O)cc1; d2Nal = N[C@H](Cc1ccc2ccccc2c1)C(=O)O; Lys(iPr) = CC(C)NCCCC[C@H](N)C(=O)O; d3Pal = N[C@H](Cc1cccnc1)C(=O)O

Tests used:
[1] = hydrophilicity by RP-HPLC retention; format: physicochemical; conditions: for hydrophilicity compared to Acyline: RP-HPLC
[2] = system: ovulation in mature female Sprague-Dawley rats; test: standard in vivo rat anti-ovulation test; conditions: injected in bacteriostatic water at about noon on the day of proestrus
Protocol: The betide is assayed in vivo to determine its effectiveness to prevent ovulation in female rats. Inthis test, a specified number of mature female Sprague-Dawley rats, e.g. five to ten, each having a body weight from 225 to 250 grams, are injected with a specified microgram dosage of the betide in bacteriostatic water at about noon on the day of proestrus. Proestrus is the […]. A separate female rat group is used as a control to which the peptide is not administered. Each of the control female rats ovulates on the evening of proestrus; the number of the rats treated which ovulate is recorded.

Row | hydrophilicity compared to Acyline [1] | Compound | anti-ovulatory activity: rats ovulating out of rats treated ([2]; dosage 2.5 μg) | other results
1 | more hydrophilic than Acyline | CC(=O)Nc1ccc(C[C@H](NC(=O)[C@H](CO)NC(=O)C(NC(=O)[C@@H](Cc2ccc(Cl)cc2)NC(=O)[C@@H](Cc2ccc3ccccc3c2)NC(C)=O)N(C)C(=O)c2cccnc2)C(=O)N[C@H](Cc2ccc(NC(C)=O)cc2)C(=O)N[C@@H](CC(C)C)C(=O)N[C@@H](CCCCNC(C)C)C(=O)N2CCC[C@H]2C(=O)N[C@H](C)C(N)=O)cc1 (single isomer, unassigned) [Betide No. 1B second isomer, Ac-β-D-2Nal-D-Cpa-γ-(3-pyridyl)methylD/L-amidoGly-Ser-Aph(acetyl)-D-Aph(acetyl)-Leu-Lys(isopropyl)-Pro-D-Ala-NH2] | 3 out of 8 | 
2 | more hydrophilic than Acyline | CC(=O)Nc1ccc(C[C@H](NC(=O)[C@H](CO)NC(=O)C(NC(=O)[C@@H](Cc2ccc(Cl)cc2)NC(=O)[C@@H](Cc2ccc3ccccc3c2)NC(C)=O)N(C)C(=O)c2cccnc2)C(=O)N[C@H](Cc2ccc(NC(C)=O)cc2)C(=O)N[C@@H](CC(C)C)C(=O)N[C@@H](CCCCNC(C)C)C(=O)N2CCC[C@H]2C(=O)N[C@H](C)C(N)=O)cc1 (single isomer, unassigned) [Betide No. 1B first isomer, Ac-β-D-2Nal-D-Cpa-γ-(3-pyridyl)methylD/L-amidoGly-Ser-Aph(acetyl)-D-Aph(acetyl)-Leu-Lys(isopropyl)-Pro-D-Ala-NH2] | only the second isomer was bioactive | 
3 | more hydrophilic than Acyline | Ac-D-2Nal-(4Cl)D-Phe-D-3Pal-Ser-Aph(acetyl)-D-Aph(acetyl)-Leu-Lys(isopropyl)-Pro-D/L-Agl-NH2 [Betide No. 8A] | 0 out of 8 | 
4 | more hydrophilic than Acyline | CC(=O)Nc1ccc(C[C@H](NC(=O)[C@H](CO)NC(=O)C(NC(=O)c2ccncc2)NC(=O)[C@@H](Cc2ccc(Cl)cc2)NC(=O)[C@@H](Cc2ccc3ccccc3c2)NC(C)=O)C(=O)N[C@H](Cc2ccc(NC(C)=O)cc2)C(=O)N[C@@H](CC(C)C)C(=O)N[C@@H](CCCCNC(C)C)C(=O)N2CCC[C@H]2C(=O)N[C@H](C)C(N)=O)cc1 (single isomer, unassigned) [Betide No. 1A first isomer, Ac-β-D-2Nal-D-4Cpa-γ-(4-pyridyl)D/L-amidoGly-Ser-Aph(acetyl)-D- Aph(acetyl)-Leu-Lys(isopropyl)-Pro-D-Ala-NH2] | only the second isomer was bioactive | anti-ovulatory activity: rats ovulating out of rats treated ([2]; dosage 10 μg): 3 out of 7
5 | more hydrophilic than Acyline | CC(=O)Nc1ccc(C[C@H](NC(=O)[C@H](CO)NC(=O)C(NC(=O)c2ccncc2)NC(=O)[C@@H](Cc2ccc(Cl)cc2)NC(=O)[C@@H](Cc2ccc3ccccc3c2)NC(C)=O)C(=O)N[C@H](Cc2ccc(NC(C)=O)cc2)C(=O)N[C@@H](CC(C)C)C(=O)N[C@@H](CCCCNC(C)C)C(=O)N2CCC[C@H]2C(=O)N[C@H](C)C(N)=O)cc1 (single isomer, unassigned) [Betide No. 1A second isomer, Ac-β-D-2Nal-D-4Cpa-γ-(4-pyridyl)D/L-amidoGly-Ser-Aph(acetyl)-D- Aph(acetyl)-Leu-Lys(isopropyl)-Pro-D-Ala-NH2] | 2 out of 8 | anti-ovulatory activity: rats ovulating out of rats treated ([2]; dosage 10 μg): 0 out of 8
6 |  | CC(=O)Nc1ccc(C[C@H](NC(=O)[C@H](CO)NC(=O)[C@@H](Cc2cccnc2)NC(=O)[C@@H](Cc2ccc(Cl)cc2)NC(=O)[C@@H](Cc2ccc3ccccc3c2)NC(C)=O)C(=O)N[C@H](Cc2ccc(NC(C)=O)cc2)C(=O)N[C@@H](CC(C)C)C(=O)N[C@@H](CCCCNC(C)C)C(=O)N2CCC[C@H]2C(=O)N[C@H](C)C(N)=O)cc1 [Acyline, Ac-D-2Nal-D-4Cpa-D-3Pal-Ser-Aph(Ac)-D-Aph(Ac)-Leu-ILys-Pro-D-Ala-NH2, reference compound] (Ac-[d2Nal][dPhe(4-Cl)][d3Pal]S[Phe(4-NH2)](Ac)[dPhe(4-NH2)](Ac)L[Lys(iPr)]P[dA]-NH2) |  | RP-HPLC retention (hydrophilicity) ([1]; gradient 40% to 75% Buffer B over 30 minutes, Buffer A TEAP pH 7.3, Buffer B 60% CH3CN and 40% Buffer A): 24.1 min
7 |  | Ac-D-2Nal-D-4Cpa-D-3Pal-Ser-Aph(acetyl)-D-Aph(acetyl)-Leu-D/L-Agl(guanidinoacetyl)-Pro-D-Ala-NH2 [Betide No. 7B] | 1 out of 7 | anti-ovulatory activity: rats ovulating out of rats treated ([2]; dosage 1 μg): 3 out of 4; anti-ovulatory activity: rats ovulating out of rats treated ([2]; dosage 5 μg): 0/4
8 |  | CC(=O)Nc1ccc(C[C@H](NC(=O)C(NC(=O)[C@@H](Cc2cccnc2)NC(=O)[C@@H](Cc2ccc(Cl)cc2)NC(=O)[C@@H](Cc2ccc3ccccc3c2)NC(C)=O)N(C)C=O)C(=O)N[C@H](Cc2ccc(NC(C)=O)cc2)C(=O)N[C@@H](CC(C)C)C(=O)N[C@@H](CCCCNC(C)C)C(=O)N2CCC[C@H]2C(=O)N[C@H](C)C(N)=O)cc1 (single isomer, unassigned) [Betide No. 2 other distereomer, Ac-D-2Nal-D-4Cpa-D-3Pal-D/L-(methyl,formyl)aminoGly-Aph(Ac)-D-Aph(Ac)-Leu- Lys(isopropyl)-Pro-D-Ala-NH2] | 8 out of 8 | 
9 | more hydrophilic than Acyline | Ac-D-2Nal-(4Cl)D-Phe-D-3Pal-Ser-Aph(acetyl)-D-Aph(acetyl)-Leu-D/L-Agl(acetyl-β-Ala)-Pro-D-Ala-NH2 [Betide No. 7] | 3 out of 9 | anti-ovulatory activity: rats ovulating out of rats treated ([2]; dosage 5 μg): 0 out of 11
10 |  | CC(=O)Nc1ccc(C[C@H](NC(=O)[C@H](CO)NC(=O)[C@@H](Cc2cccnc2)NC(=O)[C@@H](Cc2ccc(Cl)cc2)NC(=O)C(NC(C)=O)N(C)C(=O)c2ccc3ccccc3c2)C(=O)N[C@H](Cc2ccc(NC(C)=O)cc2)C(=O)N[C@@H](CC(C)C)C(=O)N[C@@H](CCCCNC(C)C)C(=O)N2CCC[C@H]2C(=O)N[C@H](C)C(N)=O)cc1 (single isomer, unassigned) [Betide No. 3C second isomer, Ac-D/L-Agl(methyl,2-naphthoyl)-D-4Cpa-D-3Pal-Ser-Aph(acetyl)-D-Aph(acetyl)-Leu-Lys(isopropyl)-Pro-D-Ala-NH2] |  | anti-ovulatory activity: rats ovulating out of rats treated ([2]; dosage 5 μg): 6 out of 8
11 |  | Ac-D-2Nal-D-Cpa-D-3Pal-Ser-Aph(acetyl)-D-Aph(acetyl)-D/L-Agl(acetyl)-Lys(isopropyl)-Pro-D-Ala-NH2 [Betide No. 6C] |  | anti-ovulatory activity: rats ovulating out of rats treated ([2]; dosage 0.5 μg): 4 out of 8; anti-ovulatory activity: rats ovulating out of rats treated ([2]; dosage 10 μg): 0 out of 8
12 |  | Ac-D-2Nal-(4Cl)D-Phe-D-3Pal-Ser-Aph(acetyl)-D-Aph(acetyl)-Leu-Lys(isopropyl)-Pro-D/L-Agl(methyl)-NH2 [Example 8B] | 0/8 | 
13 |  | CC(=O)Nc1ccc(C[C@H](NC(=O)[C@H](CO)NC(=O)[C@@H](Cc2cccnc2)NC(=O)[C@@H](Cc2ccc(Cl)cc2)NC(=O)C(NC(C)=O)N(C)C(=O)c2ccc3ccccc3c2)C(=O)N[C@H](Cc2ccc(NC(C)=O)cc2)C(=O)N[C@@H](CC(C)C)C(=O)N[C@@H](CCCCNC(C)C)C(=O)N2CCC[C@H]2C(=O)N[C@H](C)C(N)=O)cc1 (single isomer, unassigned) [Betide No. 3C first isomer, Ac-D/L-Agl(methyl,2-naphthoyl)-D-4Cpa-D-3Pal-Ser-Aph(acetyl)-D-Aph(acetyl)-Leu-Lys(isopropyl)-Pro-D-Ala-NH2] | fully active | anti-ovulatory activity: rats ovulating out of rats treated ([2]; dosage 1 μg): 2 out of 8
